# In patent US10597388B2, “Pyridazinone herbicides” (FMC CORPORATION, priority 2014, dated 2020):
# Columns and labels:
# Assay in all cases: Test D controlled growth environment herbicide test, pre- and postemergence
# Type in all cases: in vivo
# [1] = test system: wheat, winter (winter wheat, Triticum aestivum)
# Summary of the method: (§1)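 Rating is visual, 0–100 scale (100 = complete control), made against untreated plants 14–21 d after treatment in controlled growth conditions. Postemergence sprays went onto 1- to 4-leaf plants in peat medium; preemergence sprays onto silt loam after sowing; formulation included a surfactant.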
# [2] = test system: Russian thistle (Salsola kali)
# Summary of the method: as §1
# [3] = test system: deadnettle (henbit deadnettle, Lamium amplexicaule)
# Summary of the method: as §1
# [4] = test system: chamomile (scentless chamomile, Matricaria inodora)
# Summary of the method: as §1
# [5] = test system: lambsquarters (Chenopodium album)
# Summary of the method: as §1
# kochia (Kochia scoparia) = test system: kochia (Kochia scoparia)
# Summary of the method: as §1
# [6] = test system: blackgrass (Alopecurus myosuroides)
# Summary of the method: as §1
# [7] = test system: windgrass (Apera spica-venti)
# Summary of the method: as §1
# [8] = test system: field violet (Viola arvensis)
# Summary of the method: as §1
# [9] = test system: ryegrass, Italian (Italian ryegrass, Lolium multiflorum)
# Summary of the method: as §1
# [10] = test system: speedwell (bird's-eye speedwell, Veronica persica)
# Summary of the method: as §1
# [11] = test system: chickweed (common chickweed, Stellaria media)
# Summary of the method: as §1
# [12] = test system: bromegrass, downy (downy bromegrass, Bromus tectorum)
# Summary of the method: as §1
# [13] = test system: radish, wild (wild radish, Raphanus raphanistrum)
# Summary of the method: as §1
# [14] = Postemergence, 31 g ai/ha, scale 0 to 100 (0 no effect, 100 complete control)
# [15] = Postemergence, 125 g ai/ha, visual rating on scale 0 (no effect) to 100 (complete control), 14 to 21 d
# [16] = Postemergence, 250 g ai/ha, scale 0 to 100 (0 no effect, 100 complete control)
# [17] = Preemergence, 62 g ai/ha, scale 0 to 100 (0 no effect, 100 complete control)
# [18] = Preemergence, 125 g ai/ha, scale 0 to 100 (0 no effect, 100 complete control)
# [19] = Preemergence, 250 g ai/ha, scale 0 to 100, 0 no effect, 100 complete control
# [20] = postemergence, 62 g ai/ha, scale 0 to 100, 0 no effect, 100 complete control
compound,measurement,setting,value
Cc1nn(C)c(=O)c(-c2c(C)sc3c(C)cc(Cl)cc23)c1O [Compound 35],"Wheat, Winter plant response rating",[1]; [14],10
same,"Plant response rating, Wheat, Winter",[1]; [15],15
same,"Plant response rating, Wheat, Winter",[1]; [16],20
same,"Plant response rating (scale of 0 to 100), Wheat, Winter","[1]; Preemergence, 31 g ai/ha",0
same,"Plant response rating, Wheat, Winter",[1]; [17],0
same,"Plant response rating, Wheat, Winter",[1]; [18],0
same,"Plant response rating, Wheat, Winter",[1]; [19],10
same,"Plant response rating, Wheat, Winter",[1]; [20],15
same,Russian Thistle plant response rating,[2]; [14],70
same,"Plant response rating, Russian Thistle",[2]; [15],85
same,"Plant response rating, Russian Thistle",[2]; [16],95
same,"Plant response rating (scale of 0 to 100), Russian Thistle","[2]; Preemergence, 31 g ai/ha",0
same,"Plant response rating, Russian Thistle",[2]; [17],0
same,"Plant response rating, Russian Thistle",[2]; [18],0
same,"Plant response rating, Russian Thistle",[2]; [19],25
same,"Plant response rating, Russian Thistle",[2]; [20],75
same,Deadnettle plant response rating,[3]; [14],15
same,"Plant response rating, Deadnettle",[3]; [15],20
same,"Plant response rating, Deadnettle",[3]; [16],80
same,"Plant response rating (scale of 0 to 100), Deadnettle","[3]; Preemergence, 31 g ai/ha",0
same,"Plant response rating, Deadnettle",[3]; [17],15
same,"Plant response rating, Deadnettle",[3]; [18],55
same,"Plant response rating, Deadnettle",[3]; [19],80
same,"Plant response rating, Deadnettle",[3]; [20],20
same,Chamomile plant response rating,[4]; [14],100
same,"Plant response rating, Chamomile",[4]; [15],100
same,"Plant response rating, Chamomile",[4]; [16],100
same,"Plant response rating (scale of 0 to 100), Chamomile","[4]; Preemergence, 31 g ai/ha",100
same,"Plant response rating, Chamomile",[4]; [17],100
same,"Plant response rating, Chamomile",[4]; [18],100
same,"Plant response rating, Chamomile",[4]; [19],100
same,"Plant response rating, Chamomile",[4]; [20],100
same,Lambsquarters plant response rating,[5]; [14],75
same,"Plant response rating, Lambsquarters",[5]; [15],98
same,"Plant response rating, Lambsquarters",[5]; [16],98
same,"Plant response rating (scale of 0 to 100), Lambsquarters","[5]; Preemergence, 31 g ai/ha",70
same,"Plant response rating, Lambsquarters",[5]; [17],98
same,"Plant response rating, Lambsquarters",[5]; [18],100
same,"Plant response rating, Lambsquarters",[5]; [19],100
same,"Plant response rating, Lambsquarters",[5]; [20],100
same,Kochia plant response rating,kochia (Kochia scoparia); [14],25
same,"Plant response rating, Kochia",kochia (Kochia scoparia); [15],65
same,"Plant response rating, Kochia",kochia (Kochia scoparia); [16],70
same,"Plant response rating (scale of 0 to 100), Kochia","kochia (Kochia scoparia); Preemergence, 31 g ai/ha",0
same,"Plant response rating, Kochia",kochia (Kochia scoparia); [17],0
same,"Plant response rating, Kochia",kochia (Kochia scoparia); [18],20
same,"Plant response rating, Kochia",kochia (Kochia scoparia); [19],25
same,"Plant response rating, Kochia",kochia (Kochia scoparia); [20],20
same,Blackgrass plant response rating,[6]; [14],30
same,"Plant response rating, Blackgrass",[6]; [15],75
same,"Plant response rating, Blackgrass",[6]; [16],85
same,"Plant response rating (scale of 0 to 100), Blackgrass","[6]; Preemergence, 31 g ai/ha",75
same,"Plant response rating, Blackgrass",[6]; [17],85
same,"Plant response rating, Blackgrass",[6]; [18],85
same,Blackgrass plant response rating,[6]; [19],95
same,"Plant response rating, Blackgrass",[6]; [20],65
same,Windgrass plant response rating,[7]; [14],25
same,"Plant response rating, Windgrass",[7]; [15],70
same,"Plant response rating, Windgrass",[7]; [16],85
same,"Plant response rating (scale of 0 to 100), Windgrass","[7]; Preemergence, 31 g ai/ha",25
same,"Plant response rating, Windgrass",[7]; [17],95
same,"Plant response rating, Windgrass",[7]; [18],100
same,"Plant response rating, Windgrass",[7]; [19],100
same,"Plant response rating, Windgrass",[7]; [20],65
same,Field Violet plant response rating,[8]; [14],65
same,"Plant response rating, Field Violet",[8]; [15],75
same,"Plant response rating, Field Violet",[8]; [16],98
same,"Plant response rating (scale of 0 to 100), Field Violet","[8]; Preemergence, 31 g ai/ha",15
same,"Plant response rating, Field Violet",[8]; [17],75
same,"Plant response rating, Field Violet",[8]; [18],85
same,"Plant response rating, Field Violet",[8]; [19],100
same,"Plant response rating, Field Violet",[8]; [20],75
same,"Ryegrass, Italian plant response rating",[9]; [14],65
same,"Plant response rating, Ryegrass, Italian",[9]; [15],80
same,"Plant response rating, Ryegrass, Italian",[9]; [16],90
same,"Plant response rating (scale of 0 to 100), Ryegrass, Italian","[9]; Preemergence, 31 g ai/ha",75
same,"Plant response rating, Ryegrass, Italian",[9]; [17],85
same,"Plant response rating, Ryegrass, Italian",[9]; [18],100
same,"Plant response rating, Ryegrass, Italian",[9]; [19],100
same,"Plant response rating, Ryegrass, Italian",[9]; [20],75
same,Speedwell plant response rating,[10]; [14],70
same,"Plant response rating, Speedwell",[10]; [15],80
same,"Plant response rating, Speedwell",[10]; [16],100
same,"Plant response rating (scale of 0 to 100), Speedwell","[10]; Preemergence, 31 g ai/ha",0
same,"Plant response rating, Speedwell",[10]; [17],75
same,"Plant response rating, Speedwell",[10]; [18],100
same,"Plant response rating, Speedwell",[10]; [19],100
same,"Plant response rating, Speedwell",[10]; [20],75
same,Chickweed plant response rating,[11]; [14],90
same,"Plant response rating, Chickweed",[11]; [15],100
same,"Plant response rating, Chickweed",[11]; [16],100
same,"Plant response rating (scale of 0 to 100), Chickweed","[11]; Preemergence, 31 g ai/ha",95
same,"Plant response rating, Chickweed",[11]; [17],95
same,"Plant response rating, Chickweed",[11]; [18],100
same,"Plant response rating, Chickweed",[11]; [19],100
same,"Plant response rating, Chickweed",[11]; [20],100
same,"Bromegrass, Downy plant response rating",[12]; [14],5
same,"Plant response rating, Bromegrass, Downy",[12]; [15],25
same,"Plant response rating, Bromegrass, Downy",[12]; [16],30
same,"Plant response rating (scale of 0 to 100), Bromegrass, Downy","[12]; Preemergence, 31 g ai/ha",20
same,"Plant response rating, Bromegrass, Downy",[12]; [17],30
same,"Plant response rating, Bromegrass, Downy",[12]; [18],55
same,"Plant response rating, Bromegrass, Downy",[12]; [19],65
same,"Plant response rating, Bromegrass, Downy",[12]; [20],25
same,"Radish, Wild plant response rating",[13]; [14],85
same,"Plant response rating, Radish, Wild",[13]; [15],100
same,"Plant response rating, Radish, Wild",[13]; [16],100
same,"Plant response rating (scale of 0 to 100), Radish, Wild","[13]; Preemergence, 31 g ai/ha",35
same,"Plant response rating, Radish, Wild",[13]; [17],100
same,"Plant response rating, Radish, Wild",[13]; [18],100
same,"Plant response rating, Radish, Wild",[13]; [19],100
same,"Plant response rating, Radish, Wild",[13]; [20],100
Cc1ccc2ccccc2c1-c1c(O)c(Br)nn(C)c1=O [Compound 23],"Plant response rating, Wheat, Winter",[1]; [15],55
same,"Plant response rating, Wheat, Winter",[1]; [16],70
same,"Plant response rating, Wheat, Winter",[1]; [20],40
same,"Plant response rating, Russian Thistle",[2]; [15],75
same,"Plant response rating, Russian Thistle",[2]; [16],80
same,"Plant response rating, Russian Thistle",[2]; [20],75
same,"Plant response rating, Deadnettle",[3]; [15],75
same,"Plant response rating, Deadnettle",[3]; [16],85
same,"Plant response rating, Deadnettle",[3]; [20],65
same,"Plant response rating, Chamomile",[4]; [15],85
same,"Plant response rating, Chamomile",[4]; [16],100
same,"Plant response rating, Chamomile",[4]; [20],85
same,"Plant response rating, Lambsquarters",[5]; [15],75
same,"Plant response rating, Lambsquarters",[5]; [16],80
same,"Plant response rating, Lambsquarters",[5]; [20],75
same,"Plant response rating, Kochia",kochia (Kochia scoparia); [15],75
same,"Plant response rating, Kochia",kochia (Kochia scoparia); [16],80
same,"Plant response rating, Kochia",kochia (Kochia scoparia); [20],75
same,"Plant response rating, Blackgrass",[6]; [15],75
same,"Plant response rating, Blackgrass",[6]; [16],80
same,"Plant response rating, Blackgrass",[6]; [20],70
same,"Plant response rating, Windgrass",[7]; [15],75
same,"Plant response rating, Windgrass",[7]; [16],85
same,"Plant response rating, Windgrass",[7]; [20],70
same,"Plant response rating, Field Violet",[8]; [15],75
same,"Plant response rating, Field Violet",[8]; [16],75
same,"Plant response rating, Field Violet",[8]; [20],45
same,"Plant response rating, Ryegrass, Italian",[9]; [15],85
same,"Plant response rating, Ryegrass, Italian",[9]; [16],85
same,"Plant response rating, Ryegrass, Italian",[9]; [20],80
same,"Plant response rating, Speedwell",[10]; [15],75
same,"Plant response rating, Speedwell",[10]; [16],95
same,"Plant response rating, Speedwell",[10]; [20],100
same,"Plant response rating, Chickweed",[11]; [15],100
same,"Plant response rating, Chickweed",[11]; [16],100
same,"Plant response rating, Chickweed",[11]; [20],100
same,"Plant response rating, Bromegrass, Downy",[12]; [15],60
same,"Plant response rating, Bromegrass, Downy",[12]; [16],75
same,"Plant response rating, Bromegrass, Downy",[12]; [20],45
same,"Plant response rating, Radish, Wild",[13]; [15],100
same,"Plant response rating, Radish, Wild",[13]; [16],100
same,"Plant response rating, Radish, Wild",[13]; [20],75
